From publication PMC10954600, “A novel laccase from Trametes polyzona with high performance in the decolorization of textile dyes” (AMB Express, 2024)

Tested on: TP-Lac2
Conditions: 25 mM tartrate buffer, pH 3.5, 50 °C; 0.05-1.5 mM ABTS

A Km of 250 ± 40 µM was found for `CCn1c(=NN=c2sc3cc(S(=O)(=O)O)ccc3n2CC)sc2cc(S(=O)(=O)O)ccc21` [ABTS] in this work.
